Measurements as given in the kinase profiling compilation of Christmann-Franck et al. (2016).

What was measured:
Assay in all cases: radiometric filter-binding kinase assay, Kinase HotSpot
Settings in all cases: compound 0.5 µM; ATP 10 µM
[1] = biological target: SRPK3 (human) (UniProt Q9UPE1)
[2] = biological target: GRK7 (human) (UniProt Q8WTQ7)
[3] = biological target: ACVRL1 (human) (UniProt P37023)
[4] = biological target: MAP3K9 (human) (UniProt P80192)
[5] = biological target: CLK2 (human) (UniProt P49760)
[6] = biological target: STK11 (human) (UniProt Q15831)
[7] = biological target: RPS6KB1 (human) (UniProt P23443)
[8] = biological target: MAPKAPK5 (human) (UniProt Q8IW41)
[9] = biological target: CDK6 CCND3 (human) (UniProt P30281+Q00534)
[10] = biological target: ULK2 (human) (UniProt Q8IYT8)
[11] = biological target: CDK1 CCNB1 (human) (UniProt P06493+P14635)
[12] = biological target: GRK4 (human) (UniProt P32298)
[13] = biological target: LRRK2 (human) (UniProt Q5S007)
[14] = biological target: BLK (human) (UniProt P51451)
[15] = biological target: FER (human) (UniProt P16591)
[16] = biological target: TAOK2 (human) (UniProt Q9UL54)
[17] = biological target: CAMK1G (human) (UniProt Q96NX5)
[18] = biological target: CAMK4 (human) (UniProt Q16566)
[19] = biological target: TEK (human) (UniProt Q02763)
[20] = biological target: PRKD1 (human) (UniProt Q15139)
[21] = biological target: NEK7 (human) (UniProt Q8TDX7)
[22] = biological target: MST4 (human) (UniProt Q9P289)
[23] = biological target: HIPK2 (human) (UniProt Q9H2X6)
[24] = biological target: FGFR2 (human) (UniProt P21802)
[25] = biological target: ABL2 (human) (UniProt P42684)
[26] = biological target: TAOK3 (human) (UniProt Q9H2K8)
[27] = biological target: PAK1 (human) (UniProt Q13153)
[28] = biological target: NEK2 (human) (UniProt P51955)
[29] = biological target: FRK (human) (UniProt P42685)
[30] = biological target: AKT3 (human) (UniProt Q9Y243)
[31] = biological target: MAP3K14 (human) (UniProt Q99558)
[32] = biological target: RPS6KB2 (human) (UniProt Q9UBS0)
[33] = biological target: PDGFRB (human) (UniProt P09619)
[34] = biological target: CDC42BPB (human) (UniProt Q9Y5S2)
[35] = biological target: MAP2K1 (human) (UniProt Q02750)
[36] = biological target: CAMKK1 (human) (UniProt Q8N5S9)
[37] = biological target: STK3 (human) (UniProt Q13188)
[38] = biological target: HIPK4 (human) (UniProt Q8NE63)
[39] = biological target: LCK (human) (UniProt P06239)
[40] = biological target: IKBKB (human) (UniProt O14920)
[41] = biological target: STK16 (human) (UniProt O75716)
[42] = biological target: TYRO3 (human) (UniProt Q06418)

Chain of FGFR2 (human) (P21802 whole entry, looked up): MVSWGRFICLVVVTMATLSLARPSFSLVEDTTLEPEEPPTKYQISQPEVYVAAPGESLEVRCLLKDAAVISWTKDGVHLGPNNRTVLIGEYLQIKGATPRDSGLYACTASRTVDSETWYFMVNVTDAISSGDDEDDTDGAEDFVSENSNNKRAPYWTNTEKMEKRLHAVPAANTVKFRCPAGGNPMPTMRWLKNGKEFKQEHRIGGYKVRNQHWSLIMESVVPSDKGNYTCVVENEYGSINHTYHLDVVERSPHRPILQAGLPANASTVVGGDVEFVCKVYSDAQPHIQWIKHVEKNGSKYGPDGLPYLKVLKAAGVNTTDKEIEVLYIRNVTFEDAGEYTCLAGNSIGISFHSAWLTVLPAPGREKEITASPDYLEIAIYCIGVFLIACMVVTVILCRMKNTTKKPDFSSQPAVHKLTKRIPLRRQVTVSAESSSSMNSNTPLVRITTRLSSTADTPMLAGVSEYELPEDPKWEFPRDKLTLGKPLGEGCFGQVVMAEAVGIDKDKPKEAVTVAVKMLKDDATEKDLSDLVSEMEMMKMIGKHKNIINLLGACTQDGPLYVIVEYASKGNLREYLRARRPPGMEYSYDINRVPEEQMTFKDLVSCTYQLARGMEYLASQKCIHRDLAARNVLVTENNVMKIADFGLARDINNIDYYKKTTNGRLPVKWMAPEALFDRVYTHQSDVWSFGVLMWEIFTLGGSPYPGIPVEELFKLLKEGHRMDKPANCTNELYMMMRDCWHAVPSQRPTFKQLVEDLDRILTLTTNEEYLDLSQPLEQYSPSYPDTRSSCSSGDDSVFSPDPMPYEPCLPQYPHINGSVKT
Chain of ULK2 (human) (Q8IYT8 whole entry, looked up): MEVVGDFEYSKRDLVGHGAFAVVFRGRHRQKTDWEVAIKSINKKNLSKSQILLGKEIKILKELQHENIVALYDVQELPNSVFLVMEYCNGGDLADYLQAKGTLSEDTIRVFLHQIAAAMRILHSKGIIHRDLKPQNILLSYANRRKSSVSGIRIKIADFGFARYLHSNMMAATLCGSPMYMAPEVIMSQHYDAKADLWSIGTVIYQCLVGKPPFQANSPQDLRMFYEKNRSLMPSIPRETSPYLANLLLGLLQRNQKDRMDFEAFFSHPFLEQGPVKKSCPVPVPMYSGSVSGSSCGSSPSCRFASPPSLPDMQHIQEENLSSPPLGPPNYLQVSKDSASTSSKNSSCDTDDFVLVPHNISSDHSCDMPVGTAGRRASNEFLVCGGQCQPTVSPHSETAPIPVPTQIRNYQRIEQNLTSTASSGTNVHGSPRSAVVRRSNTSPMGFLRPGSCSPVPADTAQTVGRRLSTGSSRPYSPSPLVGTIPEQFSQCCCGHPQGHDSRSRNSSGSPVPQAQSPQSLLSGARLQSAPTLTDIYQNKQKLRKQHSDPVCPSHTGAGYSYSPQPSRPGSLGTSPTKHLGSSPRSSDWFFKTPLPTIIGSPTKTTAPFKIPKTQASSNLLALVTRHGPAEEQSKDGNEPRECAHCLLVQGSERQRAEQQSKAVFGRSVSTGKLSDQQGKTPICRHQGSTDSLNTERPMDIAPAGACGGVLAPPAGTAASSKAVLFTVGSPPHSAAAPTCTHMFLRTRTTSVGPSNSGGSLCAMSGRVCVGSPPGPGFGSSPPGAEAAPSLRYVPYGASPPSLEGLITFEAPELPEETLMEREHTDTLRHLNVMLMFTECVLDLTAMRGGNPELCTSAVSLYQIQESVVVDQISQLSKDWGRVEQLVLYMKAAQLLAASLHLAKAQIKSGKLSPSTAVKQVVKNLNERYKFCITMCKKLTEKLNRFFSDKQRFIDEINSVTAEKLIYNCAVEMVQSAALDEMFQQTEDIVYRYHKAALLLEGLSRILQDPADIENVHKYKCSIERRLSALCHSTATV
Chain of NEK7 (human) (Q8TDX7 whole entry, looked up): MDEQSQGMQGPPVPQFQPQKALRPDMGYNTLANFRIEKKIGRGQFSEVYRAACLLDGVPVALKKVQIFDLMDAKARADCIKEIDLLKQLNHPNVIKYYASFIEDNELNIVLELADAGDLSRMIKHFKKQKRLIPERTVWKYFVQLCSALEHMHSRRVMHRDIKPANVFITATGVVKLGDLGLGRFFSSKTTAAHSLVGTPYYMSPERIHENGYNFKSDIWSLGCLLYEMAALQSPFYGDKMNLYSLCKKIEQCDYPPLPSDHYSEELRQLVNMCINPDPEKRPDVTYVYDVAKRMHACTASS
Chain of SRPK3 (human) (Q9UPE1 whole entry, looked up): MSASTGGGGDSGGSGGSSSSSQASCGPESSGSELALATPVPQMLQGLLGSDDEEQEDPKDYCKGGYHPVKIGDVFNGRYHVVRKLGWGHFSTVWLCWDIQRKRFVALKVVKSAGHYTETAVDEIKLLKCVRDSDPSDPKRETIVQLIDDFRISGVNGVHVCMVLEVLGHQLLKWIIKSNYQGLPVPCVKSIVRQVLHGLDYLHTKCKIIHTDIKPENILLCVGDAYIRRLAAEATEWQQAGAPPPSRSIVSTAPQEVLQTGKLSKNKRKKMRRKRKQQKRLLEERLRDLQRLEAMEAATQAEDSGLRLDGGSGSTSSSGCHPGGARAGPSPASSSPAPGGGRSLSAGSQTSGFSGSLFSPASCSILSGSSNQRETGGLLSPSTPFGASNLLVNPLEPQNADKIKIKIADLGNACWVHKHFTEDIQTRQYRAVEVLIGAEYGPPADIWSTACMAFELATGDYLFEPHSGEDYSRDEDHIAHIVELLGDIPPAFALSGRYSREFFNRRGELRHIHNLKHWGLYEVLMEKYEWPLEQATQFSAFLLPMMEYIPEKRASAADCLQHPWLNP
Chain of CAMK4 (human) (Q16566 whole entry, looked up): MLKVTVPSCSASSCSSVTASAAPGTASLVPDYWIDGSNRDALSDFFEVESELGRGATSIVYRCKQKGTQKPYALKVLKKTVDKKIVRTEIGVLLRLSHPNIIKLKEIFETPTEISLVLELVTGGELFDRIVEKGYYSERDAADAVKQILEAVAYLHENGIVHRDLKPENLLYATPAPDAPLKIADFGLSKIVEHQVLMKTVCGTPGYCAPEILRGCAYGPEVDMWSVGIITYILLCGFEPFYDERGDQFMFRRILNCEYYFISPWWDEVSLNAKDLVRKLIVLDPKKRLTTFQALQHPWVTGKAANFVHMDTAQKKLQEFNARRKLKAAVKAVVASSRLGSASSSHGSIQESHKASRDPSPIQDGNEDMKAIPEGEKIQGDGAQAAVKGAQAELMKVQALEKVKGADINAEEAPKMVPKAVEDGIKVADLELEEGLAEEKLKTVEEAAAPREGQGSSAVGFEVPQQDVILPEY
Chain of RPS6KB2 (human) (Q9UBS0 whole entry, looked up): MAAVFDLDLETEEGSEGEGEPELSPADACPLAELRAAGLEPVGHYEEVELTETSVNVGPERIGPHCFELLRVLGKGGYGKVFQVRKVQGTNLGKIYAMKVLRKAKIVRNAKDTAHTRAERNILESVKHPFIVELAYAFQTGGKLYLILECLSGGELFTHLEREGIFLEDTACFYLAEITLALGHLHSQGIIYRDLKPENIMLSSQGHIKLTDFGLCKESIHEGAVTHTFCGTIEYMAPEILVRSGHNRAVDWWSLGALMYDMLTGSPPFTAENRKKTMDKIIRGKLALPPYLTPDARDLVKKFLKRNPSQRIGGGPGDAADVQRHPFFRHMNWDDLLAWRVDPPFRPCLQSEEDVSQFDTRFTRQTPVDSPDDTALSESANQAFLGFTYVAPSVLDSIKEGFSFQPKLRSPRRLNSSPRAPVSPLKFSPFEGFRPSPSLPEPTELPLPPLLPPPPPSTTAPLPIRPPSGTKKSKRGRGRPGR
Chain of AKT3 (human) (Q9Y243 whole entry, looked up): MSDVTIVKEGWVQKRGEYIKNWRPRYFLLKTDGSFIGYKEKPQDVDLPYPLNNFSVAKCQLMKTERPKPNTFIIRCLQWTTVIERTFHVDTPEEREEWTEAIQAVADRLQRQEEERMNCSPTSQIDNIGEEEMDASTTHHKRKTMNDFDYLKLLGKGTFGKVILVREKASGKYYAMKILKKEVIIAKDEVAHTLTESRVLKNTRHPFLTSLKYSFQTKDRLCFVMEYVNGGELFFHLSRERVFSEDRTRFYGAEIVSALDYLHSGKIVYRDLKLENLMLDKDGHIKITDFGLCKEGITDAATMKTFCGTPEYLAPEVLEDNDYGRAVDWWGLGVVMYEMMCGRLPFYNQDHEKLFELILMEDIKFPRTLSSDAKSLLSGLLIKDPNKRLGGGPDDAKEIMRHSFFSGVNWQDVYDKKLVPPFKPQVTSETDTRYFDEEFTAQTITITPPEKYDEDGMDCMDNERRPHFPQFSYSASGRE
Chain of FER (human) (P16591 whole entry, looked up): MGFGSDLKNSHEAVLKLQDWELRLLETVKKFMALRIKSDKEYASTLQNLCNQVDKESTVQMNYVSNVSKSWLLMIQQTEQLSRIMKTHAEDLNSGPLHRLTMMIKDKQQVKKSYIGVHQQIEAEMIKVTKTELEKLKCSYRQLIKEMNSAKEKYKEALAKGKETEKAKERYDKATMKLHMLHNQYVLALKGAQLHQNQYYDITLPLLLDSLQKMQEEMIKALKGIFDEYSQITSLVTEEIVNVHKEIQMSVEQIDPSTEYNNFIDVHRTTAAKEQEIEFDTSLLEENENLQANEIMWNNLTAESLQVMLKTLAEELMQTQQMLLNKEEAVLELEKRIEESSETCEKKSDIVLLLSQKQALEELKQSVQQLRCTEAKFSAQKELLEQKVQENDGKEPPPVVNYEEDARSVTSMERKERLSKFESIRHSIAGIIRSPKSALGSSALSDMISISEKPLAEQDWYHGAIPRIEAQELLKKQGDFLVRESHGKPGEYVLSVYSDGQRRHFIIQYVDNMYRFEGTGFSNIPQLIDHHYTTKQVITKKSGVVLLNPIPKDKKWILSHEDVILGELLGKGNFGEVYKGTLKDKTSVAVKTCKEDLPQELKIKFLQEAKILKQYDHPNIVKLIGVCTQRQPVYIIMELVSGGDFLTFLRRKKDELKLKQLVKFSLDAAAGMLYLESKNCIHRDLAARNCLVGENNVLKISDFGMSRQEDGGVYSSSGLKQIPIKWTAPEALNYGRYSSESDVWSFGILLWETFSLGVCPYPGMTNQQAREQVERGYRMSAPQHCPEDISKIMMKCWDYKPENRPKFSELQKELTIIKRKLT

Question: With `N#Cc1c[nH]c2c[nH]/c(=N\Cc3cccnc3)cc2/c1=N\c1ccc(F)c(Cl)c1` as the molecule, how does the residual activity [1] read?
Answer: The residual activity was 96.4%.

Question: And the residual activity [2]?
Answer: Its residual activity is 95.5%.

Question: What about the residual activity [3] of the same molecule?
Answer: Its residual activity is 96.9%.

Question: And the residual activity [4]?
Answer: The residual activity was 87.5%.

Question: What about the residual activity [5] of the same molecule?
Answer: Its residual activity is 79.9%.

Question: And the residual activity [6]?
Answer: The residual activity was 91.1%.

Question: What about the residual activity [7] of the same molecule?
Answer: The residual activity was 89.4%.

Question: What about the residual activity [8] of the same molecule?
Answer: The residual activity was 99.6%.

Question: And the residual activity [9]?
Answer: Its residual activity is 88.8%.

Question: And the residual activity [10]?
Answer: The residual activity was 102%.

Question: What about the residual activity [11] of the same molecule?
Answer: The residual activity was 84.6%.

Question: And the residual activity [12]?
Answer: The residual activity was 98.8%.

Question: What about the residual activity [13] of the same molecule?
Answer: Its residual activity is 86.6%.

Question: And the residual activity [14]?
Answer: The residual activity was 99.9%.

Question: And the residual activity [15]?
Answer: The residual activity was 82.9%.

Question: And the residual activity [16]?
Answer: The residual activity was 86.1%.

Question: And the residual activity [17]?
Answer: Its residual activity is 96.1%.

Question: And the residual activity [18]?
Answer: Its residual activity is 95.2%.

Question: What about the residual activity [19] of the same molecule?
Answer: Its residual activity is 95.5%.

Question: What about the residual activity [20] of the same molecule?
Answer: Its residual activity is 94.5%.

Question: And the residual activity [21]?
Answer: Its residual activity is 102%.

Question: And the residual activity [22]?
Answer: The residual activity was 95%.

Question: And the residual activity [23]?
Answer: The residual activity was 93.2%.

Question: And the residual activity [24]?
Answer: The residual activity was 103%.

Question: What about the residual activity [25] of the same molecule?
Answer: Its residual activity is 87.4%.

Question: What about the residual activity [26] of the same molecule?
Answer: Its residual activity is 99.2%.

Question: And the residual activity [27]?
Answer: The residual activity was 95.7%.

Question: And the residual activity [28]?
Answer: Its residual activity is 75.2%.

Question: What about the residual activity [29] of the same molecule?
Answer: Its residual activity is 101%.

Question: And the residual activity [30]?
Answer: The residual activity was 95.1%.

Question: And the residual activity [31]?
Answer: The residual activity was 118%.

Question: And the residual activity [32]?
Answer: The residual activity was 99.5%.

Question: And the residual activity [33]?
Answer: The residual activity was 101%.

Question: And the residual activity [34]?
Answer: Its residual activity is 124%.

Question: And the residual activity [35]?
Answer: The residual activity was 86.2%.

Question: And the residual activity [36]?
Answer: The residual activity was 105%.

Question: And the residual activity [37]?
Answer: Its residual activity is 94.3%.

Question: And the residual activity [38]?
Answer: The residual activity was 93.1%.

Question: And the residual activity [39]?
Answer: The residual activity was 97.3%.

Question: What about the residual activity [40] of the same molecule?
Answer: Its residual activity is 103%.

Question: And the residual activity [41]?
Answer: Its residual activity is 93.8%.

Question: What about the residual activity [42] of the same molecule?
Answer: Its residual activity is 98%.

Question: With `COc1ccc2c(c1)c(C1=C(c3c[nH]c4ccccc34)C(=O)NC1=O)cn2CCCN(C)C` as the molecule, how does the residual activity [1] read?
Answer: The residual activity was 89.5%.

Question: What about the residual activity [2] of the same molecule?
Answer: Its residual activity is 106%.

Question: What about the residual activity [3] of the same molecule?
Answer: The residual activity was 87.8%.

Question: What about the residual activity [4] of the same molecule?
Answer: The residual activity was 57.6%.

Question: What about the residual activity [5] of the same molecule?
Answer: Its residual activity is 78%.

Question: And the residual activity [6]?
Answer: The residual activity was 101%.

Question: What about the residual activity [7] of the same molecule?
Answer: Its residual activity is 19.7%.

Question: And the residual activity [8]?
Answer: The residual activity was 98.1%.

Question: And the residual activity [9]?
Answer: Its residual activity is 85%.

Question: And the residual activity [10]?
Answer: The residual activity was 96.1%.

Question: And the residual activity [11]?
Answer: Its residual activity is 94.4%.

Question: And the residual activity [12]?
Answer: The residual activity was 92.8%.

Question: And the residual activity [13]?
Answer: The residual activity was 87%.

Question: What about the residual activity [14] of the same molecule?
Answer: The residual activity was 78.8%.

Question: What about the residual activity [15] of the same molecule?
Answer: The residual activity was 70.9%.

Question: What about the residual activity [16] of the same molecule?
Answer: Its residual activity is 80.8%.

Question: What about the residual activity [17] of the same molecule?
Answer: The residual activity was 95%.

Question: And the residual activity [18]?
Answer: The residual activity was 90.3%.

Question: And the residual activity [19]?
Answer: The residual activity was 102%.

Question: And the residual activity [20]?
Answer: The residual activity was 68.8%.

Question: What about the residual activity [21] of the same molecule?
Answer: Its residual activity is 99.1%.

Question: And the residual activity [22]?
Answer: The residual activity was 40.4%.

Question: What about the residual activity [23] of the same molecule?
Answer: Its residual activity is 96.3%.

Question: And the residual activity [24]?
Answer: Its residual activity is 90.7%.

Question: What about the residual activity [25] of the same molecule?
Answer: Its residual activity is 77.7%.

Question: And the residual activity [26]?
Answer: The residual activity was 78.2%.

Question: What about the residual activity [27] of the same molecule?
Answer: The residual activity was 87.4%.

Question: What about the residual activity [28] of the same molecule?
Answer: Its residual activity is 99.7%.

Question: And the residual activity [29]?
Answer: Its residual activity is 91.3%.

Question: And the residual activity [30]?
Answer: Its residual activity is 63.7%.

Question: And the residual activity [31]?
Answer: The residual activity was 79.2%.

Question: What about the residual activity [32] of the same molecule?
Answer: The residual activity was 65.4%.

Question: What about the residual activity [33] of the same molecule?
Answer: The residual activity was 75.8%.

Question: What about the residual activity [34] of the same molecule?
Answer: Its residual activity is 89.4%.

Question: And the residual activity [35]?
Answer: The residual activity was 85%.

Question: What about the residual activity [36] of the same molecule?
Answer: The residual activity was 94.8%.

Question: And the residual activity [37]?
Answer: Its residual activity is 72.2%.

Question: What about the residual activity [38] of the same molecule?
Answer: The residual activity was 101%.

Question: And the residual activity [39]?
Answer: The residual activity was 93.6%.

Question: And the residual activity [40]?
Answer: Its residual activity is 99.6%.

Question: And the residual activity [41]?
Answer: The residual activity was 93.1%.

Question: What about the residual activity [42] of the same molecule?
Answer: The residual activity was 90.7%.
